This is an account of results in PMC3043298, “Development of Novel In Silico Model to Predict Corneal Permeability for Congeneric Drugs: A QSPR Approach” (Journal of Biomedicine and Biotechnology, 2011).

Counter-ions that a name gives are not always drawn.

The nature of series [1]: Experimentally derived Δlog P by shake flask method (OECD No. 107 and 117). The series is classed as physicochemical. The settings on record: difference of log P(o/w) and log P(cyclohexane/water).
Another series is described as follows: in vivo. The settings on record: both, New Zealand albino, rabbit; for AUC / Cmax / Tmax: topical or ocular. As to the method: In both groups, individual fluoroquinolones were dissolved at concentration of 0.1%. Thus, the total fluoroquinolones concentration in group A and group B were 0.4% and 0.5%, respectively. Sterile boric acid (1.9% w/v) in water was used as the aqueous media and the final formulations were filtered using 0.22 μ filter and autoclaved further before use.
Study protocol and experimental procedures were approved by the Institutional Animal Ethics Committee of All India Institute of Medical Sciences (AIIMS), New Delhi, India. New Zealand albino rabbits of either sex (1.5–2.0 kg) were obtained from Central Animal Facility, AIIMS. Animals were housed at standard laboratory conditions temperature-controlled room at 24 ± 2°C and humidity 55 ± 15% and given food and water ad libitum. All experiments were performed in accordance to the Association for Research in Vision and Ophthalmology (ARVO) statement for the use of animals in ophthalmic and vision research.
The sterile cocktail formulations of group A and group B were individually instilled (50 μL) on the lower fornix of rabbit eyes (n = 4) with the help of a calibrated micropipette. […] For each time point, a volume amounting to 50 μL of aqueous humor was aspirated through the corneal surface. The aqueous humor samples obtained were stored at −80°C until quantification by HPLC.
A Thermo Finnigan (Thermo Electron Corporation, USA) HPLC equipped with degasser, quaternary pump, autosampler, and PDA detector was employed for quantification of fluoroquinolones in samples. In the chromatographic quantification, analytical separation was performed using a C18 Symmetry Shield column (4.6 × 150 mm, 5 μm, Waters, USA) under a gradient flow of methanol, acetonitrile, and potassium phosphate buffer (20 mM, pH 2.5) at different ratio and time. For each spiked compound an external calibration curve was plotted and the analyte's spectra was assessed by matching them with custom made PDA spectra of inbuilt library of Chromquest version 4 (Thermo Electron Corporation, USA).
The dried concentrate was reconstituted with 100 μL mixture of water and acetonitrile (1 : 1), and 20 μL of the obtained supernatant was injected for quantification.
In Vivo Data Permeability coefficients (logPC) were obtained from controlled in vivo experiment conducted in rabbits using cassette dosing (N-in-One) approach.

Take `COc1c(N2CCNC(C)C2)c(F)cc2c(=O)c(C(=O)O)cn(C3CC3)c12` (stereo not shown) [Gatifloxacin]: the “ΔlogP (Cyclohexane-Octanol)” value in series [1] is given as 0.526. In the series “in vivo”, the “logPC (30 min)” value is −5.006, the “logPC (240 min)” value is −6.628, the AUC worked out at 1180 ng·h/mL and the Cmax turned out to be 682 ± 904 ng/mL. In “in vivo”, the Tmax is 0.5 h.

Take `COc1c(N2C[C@@H]3CCCN[C@@H]3C2)c(F)cc2c(=O)c(C(=O)O)cn(C3CC3)c12` [Moxifloxacin]: in the series “in vivo”, the exposure (AUC) is 1040 ng·h/mL, the Cmax amounted to 594 ± 294 ng/mL and the time of peak concentration (Tmax) was 0.5 h.

With `C[C@H]1COc2c(N3CCN(C)CC3)c(F)cc3c(=O)c(C(=O)O)cn1c23` [Levofloxacin], the “ΔlogP (Cyclohexane-Octanol)” value in series [1] was determined as 0.734. The time of peak concentration (Tmax) in “in vivo” was 1 h.

In the case of `CCn1cc(C(=O)O)c(=O)c2cc(F)c(N3CCNCC3)cc21` [Norfloxacin], the “ΔlogP (Cyclohexane-Octanol)” value in series [1] is 0.051. Also, in the series “in vivo”, the “logPC (30 min)” value is listed as −5.051, the “logPC (240 min)” value is on record as −6.382, the AUC was 2850 ng·h/mL and the Cmax worked out at 456 ± 59 ng/mL. For the same compound, in “in vivo”, the time of peak concentration (Tmax) was 1 h.

Consider `C[C@@H]1CN(c2c(F)c(N)c3c(=O)c(C(=O)O)cn(C4CC4)c3c2F)C[C@H](C)N1` [Sparfloxacin], for which, in series [1], the “ΔlogP (Cyclohexane-Octanol)” value came out at 1.025. Also, in the series “in vivo”, the “logPC (30 min)” value is on record as −4.753, the “logPC (240 min)” value is listed as −6.396, the AUC came to 1770 ng·h/mL and the highest level (Cmax) was 1150 ± 514 ng/mL. The time to peak (Tmax) in the series “in vivo” was 0.5 h.

As to `CC1COc2c(N3CCN(C)CC3)c(F)cc3c(=O)c(C(=O)O)cn1c23` (stereo not shown) [Ofloxacin], the “ΔlogP (Cyclohexane-Octanol)” value in series [1] is 0.759. Besides, the time of peak concentration (Tmax) in the series “in vivo” was 1 h.

Consider `CCn1cc(C(=O)O)c(=O)c2cc(F)c(N3CCNC(C)C3)c(F)c21` (stereo not shown) [Lomefloxacin HCl, Lomefloxacin], for which the “ΔlogP (Cyclohexane-Octanol)” value in series [1] worked out at 1.113. Moreover, in “in vivo”, the “logPC (30 min)” value is reported as −5.519, the “logPC (240 min)” value is −6.859, the AUC is 833 ng·h/mL and the Cmax was determined as 266 ± 46 ng/mL. Besides, in “in vivo”, the Tmax was 1 h.
